Measured values taken from PMC9486805, “Identification of a Phage Display-Derived Peptide Interacting with the N-Terminal Region of Factor VII Activating Protease (FSAP) Enables Characterization of Zymogen Activation” (ACS Chemical Biology, 2022).

How the values were obtained:
[1] = system: ΔEGF3 mutant; test: Binding of biotinylated peptides to captured ΔEGF3 mutant; parameters: species or system human; settings: peptide 1 μM; triplicate wells (Fig 2E)
Protocol: (§1) Figure 2 NNKC9/41 interacts with the NTR of pro-FSAP: (A) To determine peptide binding to pro-FSAP, wells were coated with 2 μg/mL pro-FSAP and biotinylated NNKC9/41 and NNK11/189 and their respective scrambled controls were added in different concentration (0–5 μM). Peroxidase-labeled streptavidin was used to detect peptide binding. (B) Same procedure as in (A) except that different proteins were immobilized and biotinylated NNKC9/41 (0–30 μM) was added and its binding was measured. (C) Schematic structure of pro-FSAP with the heavy chain consisting of an NTR, three EGF domains, and a kringle domain, followed by the light chain harboring the serine protease domain (SPD). The binding domains of antibodies used in this study are indicated. (D) Recombinant complete heavy chain (heavy) and truncated heavy chain variants ΔNTR, ΔEGF1, ΔEGF2, ΔEGF3, and ΔKringle were expressed in bacteria and analyzed by sodium dodecyl sulfate poly(acrylamide) gel electrophoresis (SDS-PAGE) followed by Coomassie staining. […] Biotinylated NNKC9/41 or the scrambled control peptide was added at 1 μM and peptide binding was measured with peroxidase-linked streptavidin. […]
(§2) Wells were coated with anti-FSAP polyclonal antibodies (5 μg/mL). […] Subsequently, the plates were washed, and bound peptides were detected with peroxidase-coupled streptavidin. […]

[2] = system: prothrombin; test: Specificity towards pro-enzymes: prothrombin; type: biochemical; settings: prothrombin 100 nM; peptide 0-50 μM; CS01 (Fig S7)
Protocol: Fig S7. […]
Pro-thrombin (100 nM) and thrombin (20 nM) […]
Bend, IN, USA) except plasminogen and FSAP, which were isolated in house; and pro-uPA was from Grünenthal (Stolberg, Germany). All chromogenic substrates were from Hyphen Biomed (Neuville Sur Oise, France). Experiments were carried out in TBS with Tween-20 (0.1 % wt/ vol) BSA (0.3% wt/vol) and CaCl2 (2 mM). Absorbance at 405 nm was measured over time and the enzyme activity is depicted was measured in duplicates (mean + or -range) and similar results were obtained in 3

[3] = target: T1, pro-FSAP purified from human plasma (Homo sapiens, UniProt Q14520); test: Pro-FSAP activation assay, purified pro-FSAP, chromogenic substrate S-2288; type: biochemical
T1 construct: Pro-FSAP was isolated from human plasma as described before; from tissue; host or cells: human plasma
Protocol: Figure 1 Isolation of pro-FSAP binding peptides and their activity: (A) strategy to isolate high-affinity phages from the NNKC9 and NNK11 libraries that bind to pro-FSAP. To select for strong binders, an excess of free pro-FSAP protein was used for competitive elution of low-affinity binders. High-affinity binders retained on the beads were analyzed further. The sequences of major positive clones identified through an ELISA-based binding assay from the NNKC9 and NNK11 libraries are shown. (B) NNK11/189 and scrambled controls (0–50 μM) and histones (0–50 μg/mL) were added to purified pro-FSAP (1.0 μg/mL) and the turnover of the chromogenic substrate S-2288 (200 μM) was measured. (C) NNKC9/41 was compared to a peptide that was synthetically monocyclized (Cys–Cys cyclic), a peptide with Ser residues instead of Cys at both ends (Ser–Ser linear), a peptide with Ser residues at the end cyclized head to tail (Ser–Ser cyclic), and a scrambled peptide in a pro-FSAP activation assay. (D) Hirudin plasma (1:12 dilution) was incubated with histones (25 μg/mL), NNKC9/41, or Ser–Ser linear control (each, 25 μM), the fluorogenic substrate turnover (Ac–Ala–Lys–Nle–Arg–AMC) was monitored in duplicate wells, and results from a single well are shown. In panels (B) and (C), results are shown as mean + range (duplicate wells). Results were replicated with five different batches of NNKC9/41 (panels (B) and (C)).
Pro-FSAP was isolated from human plasma as described before.[14] The content of the zymogen form varied from 50% to 90% due to autoactivation during the purification process. Histones, isolated from the calf thymus, were obtained from Sigma-Aldrich (Oslo, Norway). FSAP activity assays were performed as described previously.[51] In brief, microtiter wells were blocked with TBS (25 mM Tris–HCl, pH 7.5, and 150 mM NaCl) containing 3% (w/v) BSA for 1 h and washed with TBS-T. The standard assay consisted of TBS-T with 0.3% (w/v) BSA and CaCl2 (2 mM) 1 μg/mL (15 nM) plasma purified pro-FSAP and 250 μM chromogenic substrate S-2288 (D-Ile-L-Pro-L-Arg-p-nitroaniline dihydrochloride) (Haemochrome Diagnostica, Essen, Germany) and was followed at 37 °C at 405 nm in a microplate reader Synergy HI plate reader (BioTek Instruments, Winooski). In some experiments, a fluorescent substrate of FSAP[35] was used.

[4] = system: FSAP heavy chain; test: Binding of biotinylated peptides to captured recombinant FSAP heavy chain; parameters: species or system human; settings: peptide 1 μM; triplicate wells (Fig 2E)
Protocol: as §1, §2

T1 sequence (Q14520 24-560): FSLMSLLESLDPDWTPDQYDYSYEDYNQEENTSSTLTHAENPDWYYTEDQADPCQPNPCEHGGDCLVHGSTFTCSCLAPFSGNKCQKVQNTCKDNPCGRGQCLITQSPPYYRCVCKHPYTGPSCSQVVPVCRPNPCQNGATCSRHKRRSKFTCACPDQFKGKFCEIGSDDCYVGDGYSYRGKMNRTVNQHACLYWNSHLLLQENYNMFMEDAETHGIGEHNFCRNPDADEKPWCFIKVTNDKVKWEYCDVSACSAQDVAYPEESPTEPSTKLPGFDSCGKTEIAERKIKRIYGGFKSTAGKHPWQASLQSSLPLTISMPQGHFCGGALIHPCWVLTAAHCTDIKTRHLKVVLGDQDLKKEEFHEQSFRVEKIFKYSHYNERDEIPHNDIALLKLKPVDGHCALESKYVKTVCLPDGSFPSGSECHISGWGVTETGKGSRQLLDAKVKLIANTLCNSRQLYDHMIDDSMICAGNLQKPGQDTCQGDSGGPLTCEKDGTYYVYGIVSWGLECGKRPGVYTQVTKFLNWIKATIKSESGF

CRGAMWMYKRC [NNKC9/41]
peptide binding to ΔEGF3 mutant [1]: higher binding
effect on activity [2]: did not influence the activity
effect on pro-FSAP activation ([3]; purified pro-FSAP 1.0 μg/mL, peptides 0–50 μM, histones 0–50 μg/mL, S-2288 (200 μM in legend b10, 250 μM in method b60), 37 °C, 405 nm, duplicate wells): able to robustly activate pro-FSAP
Maximal activation ([3]; purified pro-FSAP, S-2288, linear synthetic peptide stored under oxidative conditions, duplicate wells, five batches): 2–2.5 fold
selectivity for pro-FSAP activation ([3]; versus plasminogen, pro-urokinase, factor XII, prothrombin, factor X and active enzymes): very high selectivity
peptide binding to heavy chain [4]: high binding
